Data taken from the supplement of paper PMC10883282.

How the values were obtained:
Assay in all cases: relative viability vs DMSO control (72 h) (fraction); higher = more viable cells
[1] = test system: HS729
Method in brief: (§1)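 A 5 µM positive control and 0.1% DMSO vehicle ran alongside sarcoma cell lines seeded in 384-well plates to reach 80–90% confluence. Serially diluted compound, 2.5 µl from source plates of 10 mM to 0.0002 mM, was added after 24 h, and the plates were held 72 h at 37 °C, 5% CO2. Relative viability was worked out from ATPLite readings as percent growth averaged over up to triplicate wells. The values were rescaled so that 1 is full and 0 is none.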

[2] = test system: SK-ES-1
Method in brief: as §1

[3] = test system: VA-ES-BJ
Method in brief: as §1

[4] = test system: A204
Method in brief: as §1

[5] = test system: RD
Method in brief: as §1

[6] = test system: SW872
Method in brief: as §1

[7] = test system: SK-LMS-1
Method in brief: as §1

[8] = test system: SW982
Method in brief: as §1

[9] = test system: KHOS-240S
Method in brief: as §1

[10] = test system: MES-SA
Method in brief: as §1

[11] = test system: SW1353
Method in brief: as §1

[12] = test system: G401
Method in brief: as §1

Cc1cn(-c2cc(NC(=O)c3ccc(C)c(Nc4nccc(-c5cnccn5)n4)c3)cc(C(F)(F)F)c2)cn1 [Radotinib]
Settings | relative viability
[1], 0.00017 µM | 0.995
[1], 0.00051 µM | 1.01
[1], 0.00152 µM | 1.02
[1], 0.00457 µM | 1.03
[1], 0.01372 µM | 0.995
[1], 0.04115 µM | 0.99
[1], 0.1235 µM | 1.02
[1], 0.3704 µM | 1.03
[1], 1.111 µM | 0.995
[1], 3.333 µM | 0.8744
[1], 10 µM | 0.875
[2], 0.00017 µM | 1.02
[2], 0.00051 µM | 1.01
[2], 0.00152 µM | 1.047
[2], 0.00457 µM | 1.04
[2], 0.01372 µM | 1.07
[2], 0.04115 µM | 1.07
[2], 0.1235 µM | 1.05
[2], 0.3704 µM | 1.03
[2], 1.111 µM | 1.02
[2], 3.333 µM | 1.01
[2], 10 µM | 1.074
[3], 0.00017 µM | 1.05
[3], 0.00051 µM | 1.08
[3], 0.00152 µM | 1.05
[3], 0.00457 µM | 1.06
[3], 0.01372 µM | 1.08
[3], 0.04115 µM | 1.05
[3], 0.1235 µM | 1.11
[3], 0.3704 µM | 1.17
[3], 1.111 µM | 1.18
[3], 3.333 µM | 1.21
[3], 10 µM | 1.21
[4], 0.00017 µM | 1.09
[4], 0.00051 µM | 1.11
[4], 0.00152 µM | 1.09
[4], 0.00457 µM | 1.13
[4], 0.01372 µM | 1.14
[4], 0.04115 µM | 1.13
[4], 0.1235 µM | 1.11
[4], 0.3704 µM | 1.07
[4], 1.111 µM | 0.836
[4], 3.333 µM | 0.629
[4], 10 µM | 0.451
[5], 0.00017 µM | 1.11
[5], 0.00051 µM | 1.1
[5], 0.00152 µM | 1.12
[5], 0.00457 µM | 1.12
[5], 0.01372 µM | 1.12
[5], 0.04115 µM | 1.11
[5], 0.1235 µM | 1.13
[5], 0.3704 µM | 1.12
[5], 1.111 µM | 1.1
[5], 3.333 µM | 1.07
[5], 10 µM | 1.04
[6], 0.00017 µM | 1.06
[6], 0.00051 µM | 1.07
[6], 0.00152 µM | 1.07
[6], 0.00457 µM | 1.07
[6], 0.01372 µM | 1.07
[6], 0.04115 µM | 1.07
[6], 0.1235 µM | 1.08
[6], 0.3704 µM | 1.06
[6], 1.111 µM | 0.98
[6], 3.333 µM | 0.915
[6], 10 µM | 0.889
[7], 0.00017 µM | 1.05
[7], 0.00051 µM | 1.07
[7], 0.00152 µM | 1.08
[7], 0.00457 µM | 1.05
[7], 0.01372 µM | 1.08
[7], 0.04115 µM | 1.14
[7], 0.1235 µM | 1.14
[7], 0.3704 µM | 1.19
[7], 1.111 µM | 1.11
[7], 3.333 µM | 1.18
[7], 10 µM | 1.12
[8], 0.00017 µM | 1.066
[8], 0.00051 µM | 1.07
[8], 0.00152 µM | 1.08
[8], 0.00457 µM | 1.07
[8], 0.01372 µM | 1.069
[8], 0.04115 µM | 1.08
[8], 0.1235 µM | 1.1
[8], 0.3704 µM | 1.11
[8], 1.111 µM | 1.11
[8], 3.333 µM | 1.13
[8], 10 µM | 1.12
[9], 0.00017 µM | 1.07
[9], 0.00051 µM | 1.07
[9], 0.00152 µM | 1.07
[9], 0.00457 µM | 1.07
[9], 0.01372 µM | 1.05
[9], 0.04115 µM | 1.06
[9], 0.1235 µM | 1.07
[9], 0.3704 µM | 1.05
[9], 1.111 µM | 1.04
[9], 3.333 µM | 1.05
[9], 10 µM | 1.02
[10], 0.00017 µM | 0.935
[10], 0.00051 µM | 0.938
[10], 0.00152 µM | 0.935
[10], 0.00457 µM | 0.941
[10], 0.01372 µM | 0.958
[10], 0.04115 µM | 0.954
[10], 0.1235 µM | 0.981
[10], 0.3704 µM | 0.99
[10], 1.111 µM | 1.01
[10], 3.333 µM | 1.01
[10], 10 µM | 1.03
[11], 0.00017 µM | 1.02
[11], 0.00051 µM | 1.023
[11], 0.00152 µM | 1.06
[11], 0.00457 µM | 1.06
[11], 0.01372 µM | 1.06
[11], 0.04115 µM | 1.1
[11], 0.1235 µM | 1.19
[11], 0.3704 µM | 1.21
[11], 1.111 µM | 1.25
[11], 3.333 µM | 1.22
[11], 10 µM | 1.17
[12], 0.00017 µM | 1.02
[12], 0.00051 µM | 1.06
[12], 0.00152 µM | 1.07
[12], 0.00457 µM | 1.1
[12], 0.01372 µM | 1.12
[12], 0.04115 µM | 1.11
[12], 0.1235 µM | 1.1
[12], 0.3704 µM | 1.08
[12], 1.111 µM | 1.04
[12], 3.333 µM | 0.984
[12], 10 µM | 0.931

CO[C@H]1C[C@@H]2CC[C@@H](C)[C@@](O)(O2)C(=O)C(=O)N2CCCC[C@H]2C(=O)O[C@H]([C@H](C)C[C@@H]2CC[C@@H](O)[C@H](OC)C2)CC(=O)[C@H](C)/C=C(\C)[C@@H](O)[C@@H](OC)C(=O)[C@H](C)C[C@H](C)/C=C/C=C/C=C/1C [Rapamycin]
Settings | relative viability
[1], 0.00017 µM | 0.98
[1], 0.00051 µM | 0.999
[1], 0.00152 µM | 1.01
[1], 0.00457 µM | 0.972
[1], 0.01372 µM | 0.97
[1], 0.04115 µM | 0.926
[1], 0.1235 µM | 0.962
[1], 0.3704 µM | 0.877
[1], 1.111 µM | 0.918
[1], 3.333 µM | 0.891
[1], 10 µM | 0.92
[2], 0.00017 µM | 0.953
[2], 0.00051 µM | 0.866
[2], 0.00152 µM | 0.737
[2], 0.00457 µM | 0.63
[2], 0.01372 µM | 0.564
[2], 0.04115 µM | 0.554
[2], 0.1235 µM | 0.51
[2], 0.3704 µM | 0.512
[2], 1.111 µM | 0.5
[2], 3.333 µM | 0.482
[2], 10 µM | 0.457
[3], 0.00017 µM | 0.942
[3], 0.00051 µM | 0.814
[3], 0.00152 µM | 0.723
[3], 0.00457 µM | 0.584
[3], 0.01372 µM | 0.476
[3], 0.04115 µM | 0.451
[3], 0.1235 µM | 0.435
[3], 0.3704 µM | 0.427
[3], 1.111 µM | 0.444
[3], 3.333 µM | 0.446
[3], 10 µM | 0.43
[4], 0.00017 µM | 0.894
[4], 0.00051 µM | 0.707
[4], 0.00152 µM | 0.614
[4], 0.00457 µM | 0.542
[4], 0.01372 µM | 0.513
[4], 0.04115 µM | 0.499
[4], 0.1235 µM | 0.489
[4], 0.3704 µM | 0.464
[4], 1.111 µM | 0.453
[4], 3.333 µM | 0.425
[4], 10 µM | 0.408
[5], 0.00017 µM | 0.95
[5], 0.00051 µM | 0.87
[5], 0.00152 µM | 0.808
[5], 0.00457 µM | 0.702
[5], 0.01372 µM | 0.629
[5], 0.04115 µM | 0.579
[5], 0.1235 µM | 0.592
[5], 0.3704 µM | 0.573
[5], 1.111 µM | 0.588
[5], 3.333 µM | 0.605
[5], 10 µM | 0.568
[6], 0.00017 µM | 0.867
[6], 0.00051 µM | 0.787
[6], 0.00152 µM | 0.729
[6], 0.00457 µM | 0.659
[6], 0.01372 µM | 0.602
[6], 0.04115 µM | 0.565
[6], 0.1235 µM | 0.543
[6], 0.3704 µM | 0.548
[6], 1.111 µM | 0.561
[6], 3.333 µM | 0.567
[6], 10 µM | 0.553
[7], 0.00017 µM | 0.924
[7], 0.00051 µM | 0.758
[7], 0.00152 µM | 0.697
[7], 0.00457 µM | 0.621
[7], 0.01372 µM | 0.58
[7], 0.04115 µM | 0.567
[7], 0.1235 µM | 0.551
[7], 0.3704 µM | 0.526
[7], 1.111 µM | 0.554
[7], 3.333 µM | 0.522
[7], 10 µM | 0.5
[8], 0.00017 µM | 0.919
[8], 0.00051 µM | 0.86
[8], 0.00152 µM | 0.763
[8], 0.00457 µM | 0.695
[8], 0.01372 µM | 0.634
[8], 0.04115 µM | 0.597
[8], 0.1235 µM | 0.567
[8], 0.3704 µM | 0.603
[8], 1.111 µM | 0.586
[8], 3.333 µM | 0.597
[8], 10 µM | 0.591
[9], 0.00017 µM | 0.9934
[9], 0.00051 µM | 0.975
[9], 0.00152 µM | 0.942
[9], 0.00457 µM | 0.858
[9], 0.01372 µM | 0.809
[9], 0.04115 µM | 0.775
[9], 0.1235 µM | 0.766
[9], 0.3704 µM | 0.746
[9], 1.111 µM | 0.734
[9], 3.333 µM | 0.7183
[9], 10 µM | 0.688
[10], 0.00017 µM | 0.876
[10], 0.00051 µM | 0.648
[10], 0.00152 µM | 0.469
[10], 0.00457 µM | 0.424
[10], 0.01372 µM | 0.384
[10], 0.04115 µM | 0.362
[10], 0.1235 µM | 0.363
[10], 0.3704 µM | 0.353
[10], 1.111 µM | 0.352
[10], 3.333 µM | 0.34
[10], 10 µM | 0.349
[11], 0.00017 µM | 0.91
[11], 0.00051 µM | 0.851
[11], 0.00152 µM | 0.825
[11], 0.00457 µM | 0.796
[11], 0.01372 µM | 0.795
[11], 0.04115 µM | 0.782
[11], 0.1235 µM | 0.747
[11], 0.3704 µM | 0.714
[11], 1.111 µM | 0.7
[11], 3.333 µM | 0.674
[11], 10 µM | 0.683
[12], 0.00017 µM | 0.901
[12], 0.00051 µM | 0.856
[12], 0.00152 µM | 0.815
[12], 0.00457 µM | 0.784
[12], 0.01372 µM | 0.759
[12], 0.04115 µM | 0.717
[12], 0.1235 µM | 0.687
[12], 0.3704 µM | 0.676
[12], 1.111 µM | 0.634
[12], 3.333 µM | 0.613
[12], 10 µM | 0.589
